The record followed here is US8263606B2 (Xenon Pharmaceuticals Inc., priority 2008, dated 2012).

The subject of one data set is sodium channel. The data set is described as follows: Guanidine influx assay (14C-guanidine radiotracer flux, in vitro). In kind it is cell-based, human or rat. As to conditions: guanidine influx assay using a known cell line that expresses a sodium channel; activity level class. A digest of the protocol:
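Test agents at half-step dilutions around 1 μM are added to plated cells in low-sodium HEPES buffer, then an aconitine/14C-guanidine mixture; after ambient-temperature incubation, cells are washed and counted. IC50 comes from a sigmoidal fit.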

Data set [1] has as its system inactivated state of the channel of interest (sodium channel). Description: Electrophysiological assay (whole cell voltage clamp, in vitro). The format is cell-based. The following applies: affinity for the inactivated state of the channel of interest. As to the method:
Cells expressing the channel of interest are cultured in DMEM growth media (Gibco) with 0.5 mg/mL G418, +/−1% PSG, and 10% heat-inactivated fetal bovine serum at 37° C. and 5% CO2. For electrophysiological recordings, cells are plated on 10 mm dishes.
Whole cell recordings are examined by established methods of whole cell voltage clamp (Bean et al., op. cit.) using an Axopatch 200B amplifier and Clampex software (Axon Instruments, Union City, Calif.). All experiments are performed at ambient temperature. Electrodes are fire-polished to resistances of 2-4 Mohms Voltage errors and capacitance artifacts are minimized by series resistance compensation and capacitance compensation, respectively. Data are acquired at 40 kHz and filtered at 5 kHz. The external (bath) solution consists of: NaCl (140 mM), KCl (5 mM), CaCl2 (2 mM), MgCl2 (1 mM), HEPES (10 mM) at pH 7.4. The internal (pipette) solution consists of (in mM): NaCl (5), CaCl2 (0.1), MgCl2 (2), CsCl (10), CsF (120), HEPES (10), EGTA (10), at pH 7.2.
To estimate the steady-state affinity of compounds for the resting and inactivated state of the channel (Kr and Ki, respectively), 12.5 ms test pulses to depolarizing voltages from −60 to +90 mV from a holding potential of −120 m V is used to construct current-voltage relationships (I-V curves). A voltage near the peak of the IV-curve (−30 to 0 m V) is used as the test pulse throughout the remainder of the experiment. Steady-state inactivation (availability) curves are then constructed by measuring the current activated during a 8.75 ms test pulse following 1 second conditioning pulses to potentials ranging from −120 to −10 m V.
The steady-state voltage-dependence of binding of a compound to a sodium channel is determined by measuring the blockage of the ionic current at two holding potentials. Binding to rested-state channels is determined by using a holding potential of −120 mV, so that maximal availability is achieved. Binding to inactivated-state channels is evaluated at a holding potential such that only 10% of the channels are available to open. The membrane potential is held at this voltage for at least 10 seconds so that drug binding can equilibrate.
The apparent dissociation constant at each voltage is calculated with the equation:
[formula] where Kd is the dissociation constant (either Kr or Ki), and [Drug] is the concentration of the test compound.
The Example numbers provided in Table 3 correspond to the Examples herein: […]

Another data set deals with CYP3A4 (Homo sapiens, UniProt P08684). The data set is described as follows: Cytochrome P450 (CYP450) Inhibition Assay, CYP3A4 (Vivid fluorescence, BOMCC substrate). As to conditions: human, P450 Baculosomes (recombinant CYP3A4), probe BOMCC (Vivid substrate).
CYP3A4, sequence (P08684 whole entry): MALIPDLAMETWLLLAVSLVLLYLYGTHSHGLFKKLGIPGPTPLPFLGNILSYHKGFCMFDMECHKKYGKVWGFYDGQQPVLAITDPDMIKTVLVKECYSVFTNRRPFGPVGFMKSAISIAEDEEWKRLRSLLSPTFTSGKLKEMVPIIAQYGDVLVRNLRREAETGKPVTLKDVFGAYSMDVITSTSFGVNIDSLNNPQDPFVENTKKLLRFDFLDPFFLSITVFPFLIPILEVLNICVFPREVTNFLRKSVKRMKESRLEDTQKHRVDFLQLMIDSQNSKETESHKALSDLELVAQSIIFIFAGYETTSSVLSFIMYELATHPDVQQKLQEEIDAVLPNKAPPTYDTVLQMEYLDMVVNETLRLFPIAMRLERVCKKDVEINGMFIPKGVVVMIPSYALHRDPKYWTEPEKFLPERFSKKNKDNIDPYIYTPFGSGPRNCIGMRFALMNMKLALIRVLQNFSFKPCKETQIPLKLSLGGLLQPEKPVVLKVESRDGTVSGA

Broadly, the melting point is the temperature of the solid-liquid transition. In general, IC50 refers to the point on the concentration scale where inhibition reaches its midpoint. What is called inhibition is the change of the read-out against control, counted positive when it falls.

Turning to `O=C1N(Cc2ccc(O)cn2)c2ccccc2[C@]12COc1cc3c(cc12)OCCO3` [Example 1.13, (8S)-1′-[(5-hydroxypyridin-2-yl)methyl]-2,3-dihydrospiro[furo[2,3-g][1,4]benzodioxine-8,3′-indol]-2′(1′H)-one], the melting point fell in the range of 256 to 258 °C. Further, in the data set on sodium channel, the IC50 was 0.1 to 1 µM. This compound displayed a Ki in data set [1] below 0.3 µM. Besides, the inhibition at 10 µM at CYP3A4 is below 50%.
For `O=C1N(Cc2ccc(C(F)(F)F)o2)c2cc3c(cc2C12COc1cc4c(cc12)OCCO4)OCCO3` (stereo not shown) [Example 2.27, 6-((5-(trifluoromethyl)furan-2-yl)methyl)-2,3,3′,7′-tetrahydro-2′H-spiro[[1,4]dioxino[2,3-f]indole-8,8′-benzofuro[5,6-b][1,4]dioxin]-7(6H)-one] the same measures were 176 to 178 °C, 0.1 to 1 µM, below 0.3 µM and above 50%.
Taken in the same sequence, the figures for `O=C1N(Cc2ccc(C(F)(F)F)o2)c2ccccc2C12COc1cc3c(cc12)OC(F)(F)O3` (stereo not shown) [Example 2.34, 2,2-difluoro-1′-{[5-(trifluoromethyl)furan-2-yl]methyl}spiro[furo[2,3-f][1,3]benzodioxole-7,3′-indol]-2′(1′H)-one] were 59 to 60 °C, 0.1 to 1 µM, above 0.3 µM and above 50%.
`COCCOCCN1C(=O)C2(COc3cc4c(cc32)OCCO4)c2cc3c(cc21)OCCO3` (stereo not shown) [Example 2.65, 6-[2-(2-methoxyethoxy)ethyl]-2,2′,3,3′-tetrahydrospiro[1,4-dioxino[2,3-f]indole-8,8′-furo[2,3-g][1,4]benzodioxin]-7(6H)-one] gave a melting point of 146 to 148 °C. Further, the half-inhibitory concentration (IC50) with sodium channel lay in the range of 1 to 10 µM. The Ki in data set [1] is above 0.3 µM. Further, the inhibition at 10 µM at CYP3A4 is below 50%.
Taken in the same sequence, the figures for `COc1cc2c(cc1C)C1(CO2)C(=O)Nc2ccccc21` (stereo not shown) [Example 3, 6-methoxy-5-methylspiro[1-benzofuran-3,3′-indol]-2′(1′H)-one] were above 250 °C, 1 to 10 µM, above 0.3 µM and above 50%.
The compound `COc1cc2c(cc1C#N)C1(CO2)C(=O)Nc2ccccc21` (stereo not shown) [Example 3.29, 6-methoxy-2′-oxo-1′,2′-dihydrospiro[1-benzofuran-3,3′-indole]-5-carbonitrile] had a melting point of 185 to 186 °C. The concentration for half-maximal inhibition (IC50) with sodium channel fell in the range of 1 to 10 µM. The compound also showed a Ki in data set [1] above 0.3 µM. The inhibition at 10 µM at CYP3A4 is below 50%.
For `O=C1Nc2cccc(-c3cnc4ccccc4c3)c2C12COc1cc3c(cc12)OCCO3` (stereo not shown) [Example 3.34, 4′-quinolin-3-yl-2,3-dihydrospiro[furo[2,3-g][1,4]benzodioxine-8,3′-indol]-2′(1′H)-one] the same measures were 221 to 224 °C, 0.1 to 1 µM, above 0.3 µM and above 50%.
Taken in the same sequence, the figures for `O=C1Nc2cccc(-c3ccc(Oc4ccccc4)cc3)c2C12COc1cc3c(cc12)OCCO3` (stereo not shown) [Example 3.35, 4′-(4-phenoxyphenyl)-2,3-dihydrospiro[furo[2,3-g][1,4]benzodioxine-8,3′-indol]-2′(1′H)-one] were 243 to 246 °C, 0.1 to 1 µM, above 0.3 µM and above 50%.
Taken in the same sequence, the figures for `O=C1Nc2ccccc2C12COc1ccc3nonc3c12` (stereo not shown) [Example 3.41, spiro[furo[3,2-e][2,1,3]benzoxadiazole-8,3′-indol]-2′(1′H)-one] were above 220 °C, 1 to 10 µM, above 0.3 µM and below 50%.
In turn, `N#Cc1cccc(CN2C(=O)C3(COc4cc5c(cc43)CCO5)c3ccccc32)c1` (stereo not shown) [Example 4.22, 3-[(2′-oxo-5,6-dihydrospiro[benzo[1,2-b:5,4-b′]difuran-3,3′-indol]-1′(2′H)-yl)methyl]benzonitrile] had a melting point of 187 to 193 °C. Besides, in the data set with sodium channel, the IC50 fell in the range of 0.001 to 0.1 µM. Further, the Ki in data set [1] was above 0.3 µM. At CYP3A4, the inhibition at 10 µM is above 50%.
Taken in the same sequence, the figures for `O=C1N(Cc2ccc3nonc3c2)c2ccccc2C12COc1cc3c(cc12)CCO3` (stereo not shown) [Example 4.27, 1′-(2,1,3-benzoxadiazol-5-ylmethyl)-5,6-dihydrospiro[benzo[1,2-b:5,4-b′]difuran-3,3′-indol]-2′(1′H)-one] were 169 to 171 °C, 0.001 to 0.1 µM, above 0.3 µM and above 50%.
In the case of `O=C1N(Cc2ccc3nsnc3c2)c2ccccc2C12COc1cc3c(cc12)CCO3` (stereo not shown) [Example 4.28, 1′-(2,1,3-benzothiadiazol-5-ylmethyl)-5,6-dihydrospiro[benzo[1,2-b:5,4-b′]difuran-3,3′-indol]-2′(1′H)-one], the melting point fell in the range of 162 to 164 °C. For the same compound, in the data set with sodium channel, the 50% inhibitory concentration (IC50) was 0.001 to 0.1 µM. The compound further displayed a Ki in data set [1] below 0.3 µM. For the same compound, the inhibition at 10 µM at CYP3A4 is above 50%.
For `O=C1N(CC2CN(Cc3ccccc3)CCO2)c2ccccc2C12COc1cc3c(cc12)CCO3` (stereo not shown) [Example 4.29, 1′-[(4-benzylmorpholin-2-yl)methyl]-5,6-dihydrospiro[benzo[1,2-b:5,4-b′]difuran-3,3′-indol]-2′(1′H)-one] the same measures were 65 to 70 °C, 1 to 10 µM, above 0.3 µM and above 50%.
For the compound `CC(C)CCN1C(=O)C2(COc3cc4c(cc32)OCCO4)c2ccccc21` (stereo not shown) [Example 4.36, 1′-(3-methylbutyl)-2,3-dihydrospiro[furo[2,3-g][1,4]benzodioxine-8,3′-indol]-2′(1′H)-one], the melting point lay within 134 to 137 °C. In the data set on sodium channel, the half-inhibitory concentration (IC50) was in the range of 0.001 to 0.1 µM. The compound further showed a Ki in data set [1] below 0.3 µM. For the same compound, at CYP3A4, the inhibition at 10 µM was below 50%.
Taken in the same sequence, the figures for `O=C1N(CC2CCCCO2)c2ccccc2C12COc1cc3c(cc12)OCCO3` (stereo not shown) [Example 4.38, 1′-(tetrahydro-2H-pyran-2-ylmethyl)-2,3-dihydrospiro[furo[2,3-g][1,4]benzodioxine-8,3′-indol]-2′(1′H)-one] were 158 to 166 °C, 0.001 to 0.1 µM, below 0.3 µM and below 50%.
For `O=C1N(C[C@@H]2CCCO2)c2ccccc2C12COc1cc3c(cc12)OCCO3` (stereo partly drawn) [Example 4.43, 1-[(2S)-tetrahydrofuran-2-ylmethyl]-2,3-dihydrospiro[furo[2,3-g][1,4]benzodioxine-8,3′-indol]-2′(1′H)-one] the same measures were 173 to 175 °C, 0.001 to 0.1 µM, above 0.3 µM and below 50%.
Taken in the same sequence, the figures for `O=C1N(CC2COCCO2)c2ccccc2C12COc1cc3c(cc12)OCCO3` (stereo not shown) [Example 4.45, 1′-(1,4-dioxan-2-ylmethyl)-2,3-dihydrospiro[furo[2,3-g][1,4]benzodioxine-8,3′-indol]-2′(1′H)-one] were 160 to 165 °C, 0.001 to 0.1 µM, above 0.3 µM and below 50%.
With `O=C1N(Cc2ccc3c(c2)OCCO3)c2ccccc2C12COc1cc3c(cc12)OCCO3` (stereo not shown) [Example 4.48, 1-(2,3-dihydro-1,4-benzodioxin-6-ylmethyl)-2,3-dihydrospiro[furo[2,3-g][1,4]benzodioxine-8,3′-indol]-2′(1′H)-one], the melting point fell in the range of 120 to 123 °C. In the data set on sodium channel, the IC50 fell in the range of 0.001 to 0.1 µM. This compound had a Ki in data set [1] below 0.3 µM. In addition, the inhibition at 10 µM on CYP3A4 was below 50%.
For `O=C1N(Cc2ccc(C(F)(F)F)o2)c2ccccc2[C@@]12COc1cc3c(cc12)OCCO3` [Example 4.49, (R)-1′-{[5-(trifluoromethyl)furan-2-yl]methyl}-2,3-dihydrospiro[furo[2,3-g][1,4]benzodioxine-8,3′-indol]-2′(1′H)-one] the same measures were 64 to 68 °C, 0.001 to 0.1 µM, below 0.3 µM and above 50%.
